Measurements from article PMC3607207 (ACS combinatorial science, 2012).
Entries after “also recorded” stand apart in the source; their conditions may differ.

Target: mu opioid receptor (Rattus norvegicus, UniProt P33535)
Experiment: competitive radio receptor binding assay, [3H]DAMGO, rat brain membranes
Settings: 1 mg/ml (14.7 mM) imidazole

mu opioid receptor, sequence (P33535 whole entry): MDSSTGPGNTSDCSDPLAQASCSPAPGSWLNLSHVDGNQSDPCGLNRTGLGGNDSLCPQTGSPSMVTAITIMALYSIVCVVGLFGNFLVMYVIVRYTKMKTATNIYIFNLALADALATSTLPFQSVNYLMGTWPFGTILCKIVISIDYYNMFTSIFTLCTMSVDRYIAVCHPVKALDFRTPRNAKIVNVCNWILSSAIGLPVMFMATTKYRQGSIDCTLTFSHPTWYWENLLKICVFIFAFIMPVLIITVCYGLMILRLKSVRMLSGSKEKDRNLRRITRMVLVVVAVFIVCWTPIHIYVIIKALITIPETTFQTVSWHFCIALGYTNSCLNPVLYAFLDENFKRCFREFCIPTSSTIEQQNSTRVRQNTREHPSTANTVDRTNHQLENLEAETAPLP

## c1c[nH]cn1 [imidazole]
  effect on binding of 3H-DAMGO to the mu opioid receptor: negligible inhibition; also recorded: No significant effect
